Test results as given in the Deep4Chem optical property database.
Where “and” joins values, the source holds several entries; their conditions need not be identical. Equal entries are not always repeated. One block for each compound: values may come before it.

Assay: solvent given as SMILES

Structure (SMILES): Cc1ccc(S(=O)(=O)Nc2c(/C=C/c3ccccc3)sc(-c3ccc(N(C)C)cc3)c2-c2ccsc2)cc1
absorption maximum (in CC#N): 465 nm

Structure (SMILES): CN(C)c1ccc2nc3c(cc2c1)c(-c1ccccc1)nn3-c1ccccc1
absorption maximum (in C1CCCCC1): 439.56 nm
absorption maximum (in C1CCOC1): 450.05 nm
absorption maximum (in CC#N): 449.24 nm
absorption maximum (in CC(C)=O): 450.45 nm
absorption maximum (in CCCCCl): 448.43 nm
absorption maximum (in CCCCOCCCC): 444.64 nm
absorption maximum (in CN(C)C=O): 452.69 nm

Structure (SMILES): CC(C)C[Si](C#Cc1c2c(=O)c3ccccc3c2c(C#C[Si](CC(C)C)(CC(C)C)CC(C)C)c2c(=O)c3ccccc3c12)(CC(C)C)CC(C)C
absorption maximum (in ClC(Cl)Cl): 524 nm

Structure (SMILES): CCN(CC)c1ccc(-c2ccc(-c3nc(N4CCOCC4)c4ccccc4n3)s2)cc1
absorption maximum (in CC#N): 401 nm
absorption maximum (in Cc1ccccc1): 405 nm

Structure (SMILES): CC1=[N+]2C(=C(c3c4ccccc4cc4ccccc34)c3ccc(C)n3[B-]2(F)F)C=C1
absorption maximum (in C1CCOC1): 517 nm
absorption maximum (in CC#N): 514 nm
absorption maximum (in CCCCCC): 515 nm and 516 nm
absorption maximum (in CCO): 515 nm
absorption maximum (in CN(C)C=O): 517 nm
absorption maximum (in CO): 517 nm
absorption maximum (in CS(C)=O): 519 nm
absorption maximum (in Cc1ccccc1): 519 nm
absorption maximum (in ClC(Cl)Cl): 518 nm
absorption maximum (in ClCCl): 518 nm

Structure (SMILES): c1cc(-n2c3ccccc3c3ccccc32)c(-c2nc3ccccn3n2)c(-n2c3ccccc3c3ccccc32)c1
absorption maximum (in Cc1ccccc1): 338 nm

Structure (SMILES): Cc1cc(-c2nnc(-c3c(C(C)C)cc(C(C)C)cc3C(C)C)o2)ccc1-n1c2ccccc2c2ccccc21
absorption maximum (in Cc1ccccc1): 339 nm

Structure (SMILES): CC1=CC(C)=[N+]2C1=Cc1c(C)cc(C)n1[B-]2(F)F
absorption maximum (in CCCCCC): 508 nm
absorption maximum (in CO): 503 nm
absorption maximum (in ClCCl): 506 nm

Structure (SMILES): c1ccc2cc(-n3cnc4ccccc43)ccc2c1
absorption maximum (in C1CCCCC1): 275 nm
absorption maximum (in C1CCOC1): 277 nm
absorption maximum (in CC#N): 278 nm
absorption maximum (in CCO): 277 nm
absorption maximum (in CCOC(C)=O): 278 nm
absorption maximum (in CCOCC): 276 nm
absorption maximum (in CO): 275 nm
absorption maximum (in Cc1ccccc1): 275 nm
absorption maximum (in ClC(Cl)Cl): 276 nm

Structure (SMILES): COc1ccccc1C1=NC2c3cccc4cccc(c34)C2N1c1ccccc1 (stereo unspecified)
absorption maximum (in Cc1ccccc1): 312 nm

Structure (SMILES): Cc1cc(C)nc(N)n1
absorption maximum (in CCO): 297 nm
absorption maximum (in CO): 296 nm
absorption maximum (in O): 284 nm

Structure (SMILES): Cn1c2ccc(S(=O)(=O)Cl)cc2c(=O)c2cc(S(=O)(=O)Cl)ccc21
absorption maximum (in CS(C)=O): 406 nm

Structure (SMILES): C[n+]1cc2ccc3c[n+](C)c4ccccc4c3c2c2ccccc21
absorption maximum (in CC#N): 465 nm

Structure (SMILES): CC1(C)C(/C=C/C2=C(Oc3ccc(CCN=C=S)cc3Cl)C(=C/C=C3/N(CCCS(=O)(=O)[O-])c4ccccc4C3(C)C)/CCC2)=[N+](CCCS(=O)(=O)[O-])c2ccccc21
absorption maximum (in CO): 768 nm

Structure (SMILES): CCCCC(CC)CN1C(=O)c2cccc3c(C#Cc4ccc(N(c5ccc(C#Cc6ccc7c8c(cccc68)C(=O)N(CC(CC)CCCC)C7=O)cc5)c5ccc(C#Cc6ccc7c8c(cccc68)C(=O)N(CC(CC)CCCC)C7=O)cc5)cc4)ccc(c23)C1=O (stereo unspecified)
absorption maximum (in C1CCCCC1): 444 nm
absorption maximum (in C1CCOC1): 447 nm
absorption maximum (in CC#N): 454 nm
absorption maximum (in Cc1ccccc1): 446 nm
absorption maximum (in ClC(Cl)Cl): 453 nm

Structure (SMILES): COc1cc(/C=C2\C=C(c3ccccc3)C=C2c2ccccc2)cc(OC)c1
absorption maximum (in C1CCOC1): 436 nm

Structure (SMILES): C1=C(c2ccccc2)C2=Nc3c(-c4ccccc4)cc4n3[B-]3(Oc5ccccc5C1=[N+]23)Oc1ccccc1-4 (stereo unspecified)
absorption maximum (in Cc1ccccc1): 728 nm

Structure (SMILES): COc1cc2c(cc1F)c(=O)c1cc(F)c(OC)cc1n2-c1ccccc1
absorption maximum (in CCO): 378 nm

Structure (SMILES): COCCOCCOCCOCC(COCCOCCOCCOC)Oc1cc(/C=C/c2ccc(C=C3C(=O)c4ccccc4C3=O)cc2)c(OC(COCCOCCOCCOC)COCCOCCOCCOC)cc1/C=C/c1ccc(C=C2C(=O)c3ccccc3C2=O)cc1
absorption maximum (in ClCCl): 489 nm

Structure (SMILES): COc1ccc(-c2cc(-c3ccc(C)cc3)c(C#N)c(OC)n2)cc1
absorption maximum (in C1CCOC1): 339 nm
absorption maximum (in CC#N): 338 nm
absorption maximum (in CC(C)=O): 340 nm
absorption maximum (in CCCCCC): 334 nm
absorption maximum (in CCOC(C)=O): 335 nm
absorption maximum (in CN(C)C=O): 343 nm
absorption maximum (in CO): 338 nm
absorption maximum (in CS(C)=O): 344 nm
absorption maximum (in ClC(Cl)Cl): 341 nm

Structure (SMILES): CC(C)(C)c1ccc2c(c1)c1cc(C(C)(C)C)ccc1n2-c1cccc(-c2nc(-c3cccc(P(=O)(c4ccccc4)c4ccccc4)c3)nc(-c3cccc(P(=O)(c4ccccc4)c4ccccc4)c3)n2)c1
absorption maximum (in C1CCOC1): 343 nm
absorption maximum (in CC#N): 343 nm
absorption maximum (in CC(C)=O): 343 nm
absorption maximum (in CN(C)C=O): 343 nm
absorption maximum (in Cc1ccccc1): 343 nm
absorption maximum (in ClC(Cl)Cl): 343 nm
absorption maximum (in ClCCl): 343 nm

Structure (SMILES): c1ccc(-c2cc(-c3ccc(N(c4ccccc4)c4ccccc4)cc3)cc(-c3ccccc3)n2)cc1
absorption maximum (in CC#N): 357 nm
absorption maximum (in CCCCCC): 354 nm
absorption maximum (in CCO): 362 nm
absorption maximum (in CO): 359 nm
absorption maximum (in ClCCl): 360 nm

Structure (SMILES): CCCCN(CCCC)c1ccc(C#Cc2cc(C#Cc3ccc(N(CCCC)CCCC)cc3)c(C#Cc3ccc([N+](=O)[O-])cc3)cc2C#Cc2ccc([N+](=O)[O-])cc2)cc1
absorption maximum (in ClCCl): 426 nm

Structure (SMILES): O=Cc1nc2ccc(C#Cc3ccc(N(c4ccc(C#Cc5ccc6nc(C=O)sc6c5)cc4)c4ccc(C#Cc5ccc6nc(C=O)sc6c5)cc4)cc3)cc2s1
absorption maximum (in Cc1ccccc1): 414 nm

Structure (SMILES): CCCCC(CC)CN1C(=O)c2cc(Oc3ccc(OC)cc3)c3c4c(Oc5ccc(C(C)(C)C)cc5)cc5c6c(cc(Oc7ccc(C(C)(C)C)cc7)c(c7c(Oc8ccc(OC)cc8)cc(c2c37)C1=O)c64)C(=O)N(c1c(C(C)C)cccc1C(C)C)C5=O (stereo unspecified)
absorption maximum (in Cc1ccccc1): 581 nm

Structure (SMILES): N#CC1N=c2cc3c4c(cccc4c2=NC1C#N)C(c1ccccc1)=C(c1ccccc1)O3 (stereo unspecified)
absorption maximum (in ClCCl): 501 nm

Structure (SMILES): CCCCCCCCCCCCCCCCCCN1C(=O)c2cccc3c(OCCN(C)C)ccc(c23)C1=O
absorption maximum (in CC#N): 363 nm
absorption maximum (in CC(C)=O): 362 nm
absorption maximum (in CCO): 362 nm
absorption maximum (in CCOC(C)=O): 363 nm
absorption maximum (in CCOCC): 359 nm
absorption maximum (in CN(C)C=O): 364 nm
absorption maximum (in ClCCl): 363 nm

Structure (SMILES): c1ccc(-c2nc(-c3ccccc3)nc(-c3ccc(-n4c5ccccc5c5ccc6c(c7ccccc7n6-c6ccccc6)c54)cc3)n2)cc1
absorption maximum (in Cc1ccccc1): 360 nm

Structure (SMILES): CCCCCCCCn1c(=O)c2cc3c(C#Cc4ccc(N(c5ccccc5)c5ccccc5)cc4)c4cc5c(=O)n(CCCCCCCC)c(=O)c5cc4c(C#Cc4ccc(N(c5ccccc5)c5ccccc5)cc4)c3cc2c1=O
absorption maximum (in ClC(Cl)Cl): 582 nm

Structure (SMILES): CCN(CC)c1ccc2c(c1)OC1=[N+](c3ccc(I)cc3)[B-](F)(F)n3c(nc4ccccc43)C1=C2
absorption maximum (in ClCCl): 496 nm

Structure (SMILES): CCC1=C(C)C2=C(c3c(C)cc(C)nc3-c3cccs3)c3c(C)c(CC)c(C)n3[B-](F)(F)[N+]2=C1C
absorption maximum (in C1CCCCC1): 532 nm
absorption maximum (in C1CCOC1): 532 nm
absorption maximum (in C1COCCO1): 533 nm
absorption maximum (in CC#N): 530 nm
absorption maximum (in CCCCCC): 531 nm
absorption maximum (in CCO): 531 nm
absorption maximum (in CCOC(C)=O): 531 nm
absorption maximum (in CCOCC): 530 nm
absorption maximum (in CN(C)C=O): 532 nm
absorption maximum (in CS(C)=O): 534 nm
absorption maximum (in Cc1ccccc1): 533 nm
absorption maximum (in ClC(Cl)(Cl)Cl): 534 nm
absorption maximum (in ClC(Cl)Cl): 535 nm

Structure (SMILES): CCCCn1c(=O)c2cc3ccc4cccc5ccc(c2c1=O)c3c45
absorption maximum (in ClC(Cl)Cl): 427 nm

Now from value to compound:

absorption maximum (in CC(C)(C)O): 350 nm
absorption maximum (in CC(C)CO): 350 nm
absorption maximum (in CC(C)O): 349 nm
absorption maximum (in CCCCO): 349 nm
absorption maximum (in CCCO): 349 nm
absorption maximum (in CCO): 349 nm
absorption maximum (in CN(C)C=O): 350 nm
absorption maximum (in CNC=O): 349 nm
absorption maximum (in CO): 349 nm
absorption maximum (in NC=O): 352 nm
absorption maximum (in O): 351 nm
Structure (SMILES): COCCOCCOCCOCCOc1ccc(OCCOCCOCCOCCOC)c(C=O)c1

absorption maximum (in C1CCOC1): 476 nm
Structure (SMILES): CCCCCOc1cc2oc(=O)c3c4ccc(N(c5ccccc5)c5ccccc5)cc4c4ccc5cccc6c(c1)c2c3c4c56

absorption maximum (in ClCCl): 390 nm
Structure (SMILES): CCOC(=O)c1ccc(C2=Cc3cc4ccccc4cc3P2(=O)c2ccccc2)cc1 (stereo unspecified)

absorption maximum (in C1CCCCC1): 410 nm
absorption maximum (in C1COCCO1): 425 nm
absorption maximum (in CC#N): 430 nm
absorption maximum (in CN(C)C=O): 435 nm
absorption maximum (in ClC(Cl)Cl): 425 nm
Structure (SMILES): N#Cc1c2nc3ccccn3c2nc2c1nc1ccccn12

absorption maximum (in CC#N): 640 nm
Structure (SMILES): F[B-]1(F)n2c(c(Sc3ccccc3)c3c2-c2ccccc2CC3)C=C2C(Sc3ccccc3)=C3CCc4ccccc4C3=[N+]21

absorption maximum (in ClC(Cl)Cl): 506 nm
Structure (SMILES): CC1=CC(C)=[N+]2C1=C(c1ccc(I)cc1)c1c(C)cc(C)n1[B-]2(OCc1ccccc1)OCc1ccccc1

absorption maximum (in CC#N): 345 nm
absorption maximum (in ClCCl): 365 nm
Structure (SMILES): Cc1cc(-c2ccc(C(C)(C)C)cc2)cc(C)[o+]1

absorption maximum (in C1COCCO1): 405 nm
Structure (SMILES): COC(=O)c1ccc(/C=C2\N=C(c3ccc([N+](=O)[O-])cc3)NC2=O)cc1

absorption maximum (in C1CCOC1): 361 nm
absorption maximum (in CC#N): 368 nm
absorption maximum (in CCCCCC): 336 nm
absorption maximum (in CCO): 368 nm
absorption maximum (in CCOC(C)=O): 361 nm
absorption maximum (in CS(C)=O): 369 nm
absorption maximum (in ClCCl): 368 nm
absorption maximum (in O): 368 nm
Structure (SMILES): CCCCCCCCCCCCOc1cc2cc(N(C)C)ccc2cc1C#N

absorption maximum (in O): 434 nm
Structure (SMILES): CC[n+]1c(-c2ccccc2)c2cc(NC(N)=O)ccc2c2ccc(NC(N)=O)cc21

absorption maximum (in CO): 276 nm
Structure (SMILES): N#Cc1c(-n2nnc3ccc(Cl)cc32)n([C@H]2C[C@H](O)[C@@H](CO)O2)c2ncnc(N)c12

absorption maximum (in ClC(Cl)Cl): 335 nm
Structure (SMILES): N#Cc1c(C#N)c2cc(F)ccc2c2ccc(F)cc12

absorption maximum (in CC#N): 315 nm
absorption maximum (in ClCCl): 318 nm
Structure (SMILES): CC(=O)Nc1cccc2c1C#Cc1c(cccc1C(=O)N(C)C)OCCCO2

absorption maximum (in ClCCl): 366 nm
Structure (SMILES): CCCCc1cc2c3c(c1)-c1ccccc1B(c1c(C)cc(C)cc1C)N3B(c1c(C)cc(C)cc1C)c1ccccc1-2

absorption maximum (in C1CCOC1): 391 nm
Structure (SMILES): F[Si-](F)(c1ccccc1)(c1c2ccccc2cc2ccccc12)c1c2ccccc2cc2ccccc12

absorption maximum (in CC#N): 352 nm
absorption maximum (in ClCCl): 365 nm
Structure (SMILES): Cc1cc(O)c(C(=O)/C=C/c2ccccc2[N+](=O)[O-])c(=O)o1

absorption maximum (in ClCCl): 400 nm
Structure (SMILES): [O-][n+]1c(/C=C/c2ccccc2)nc(N2CCOCC2)c2c1CCCC2
